Measured values reported in patent US20090298781A1, “COMPOUNDS FOR THE INHIBITION OF APOPTOSIS” (CONSEJO SUPERIOR DE, priority 2005, published 2009).

Assays:
Format in all cases: cell-based
Caspase activity, U2-OS = assay: Caspase inhibition assay, U2-OS; conditions: Homo sapiens, U2OS, 5 μM
U937 cell line = assay: MTT assay, toxicity (cell viability), U937
Experimental: (§1) The MTT assay measures cell proliferation as well as reduction in cell viability when metabolic events lead to apoptosis or necrosis. It can also be used to assess the rate of survival of a given cell line when it is incubated in the presence of xenobiotics. The reduction of tetrazolium salts is accepted as a reliable way to analyse cell proliferation. The yellow tetrazolium MTT (3-(4,5-dimethylthiazolyl-2)-2,5-diphenyltetrazolium bromide) is reduced by metabolically active cells and results in the intracellular formation of purple formazan that can be spectrophotometrically measured after solubilisation with DMSO.
(§2) The MTT assay was used in this invention to assess the toxicity of compounds at different concentrations. To analyse their potential impairment in cell viability, compounds were added to Saos-2 and U937 cell lines at different concentrations and incubated at different times. Results are expressed by percentage cell viability.

Saos-2 cell line = assay: MTT assay, toxicity (cell viability), Saos-2
Experimental: as §1, §2

Caspase activity, HeLa = assay: Caspase inhibition assay, HeLa; conditions: Homo sapiens, 5 μM
[1] = system: Caspase activity, U937 cell extracts; assay: Caspase inhibition assay, U937 cell extracts; conditions: Homo sapiens, U-937, 5 μM
Experimental: The time-dependent inhibition of caspase induced by the compounds described in this invention was analysed. […] Caspase activity was assayed using Saos-2 or U937 cell extracts and Ac-DEVD-afc (N-acetyl-Asp-Glu-Val-Asp-afc(7-amino-4-trifluoromethyl coumarin)) as substrate (20 μM). Caspase activity was continuously monitored by the liberation of fluorescent afc using a Cytofluor 4000 fluorimeter (excitation 400 nm; emission 508 nm) for 1 hour. The effect of the compounds on the caspase activity was expressed as the percentage of inhibition in the fluorescence signal of treated cells vs. the non-treated cells (control).

Row | Structure (SMILES) | inhibition at 5 µM (Caspase activity, U2-OS; 24 h) [%] | inhibition at 5 µM (Caspase activity, U2-OS; 48 h) [%] | inhibition at 5 µM (Caspase activity, U2-OS; 72 h) [%] | % Cell viability (U937 cell line; U937, 24 h, 1 μM) [%] | % Cell viability (U937 cell line; U937, 24 h, 5 μM) [%] | % Cell viability (U937 cell line; U937, 24 h, 10 μM) [%] | % Cell viability (U937 cell line; U937, 48 h, 1 μM) [%] | % Cell viability (U937 cell line; U937, 48 h, 5 μM) [%] | % Cell viability (U937 cell line; U937, 48 h, 10 μM) [%] | % Cell viability (Saos-2 cell line; Saos-2, 24 h, 1 μM) [%] | % Cell viability (Saos-2 cell line; Saos-2, 24 h, 5 μM) [%] | % Cell viability (Saos-2 cell line; Saos-2, 24 h, 10 μM) [%] | % Cell viability (Saos-2 cell line; Saos-2, 48 h, 1 μM) [%] | % Cell viability (Saos-2 cell line; Saos-2, 48 h, 5 μM) [%] | % Cell viability (Saos-2 cell line; Saos-2, 48 h, 10 μM) [%] | inhibition at 5 µM (Caspase activity, HeLa; 24 h) [%] | inhibition at 5 µM (Caspase activity, HeLa; 48 h) [%] | inhibition at 5 µM ([1]; U937, 24 h) [%] | inhibition at 5 µM ([1]; U937, 48 h) [%] | inhibition at 5 µM ([1]; U937, 72 h) [%] | other results
1 | NC(=O)CN(C(=O)C1CC(=O)N(CCc2ccc(Cl)cc2Cl)CC(=O)N1CCC(c1ccccc1)c1ccccc1)C1CC1 (centres unmarked) [I.2, 1-[2-(2,4-Dichlorophenyl)ethyl]-4-(3,3-diphenylpropyl)-3,7-dioxo[1,4]diazepane-5-carboxylic acid carbamoylmethylcyclopropylamide] | 0 | 54 | 27 | 100 | 100 | 97 | 100 | 99 | 83 | 100 | 99 | 99 | 100 | 100 | 91 | 1 | 46 | 0 | 3 | 0 | inhibition at 5 µM (Caspase activity, HeLa; 72 h): 59%
2 | CCCCN(CC(N)=O)C(=O)C1CC(=O)N(CCc2ccc(Cl)cc2Cl)CC(=O)N1CCC(c1ccccc1)c1ccccc1 (centres unmarked) [I.11, 1-[2-(2,4-Dichloro-phenyl)ethyl]-4-(3,3-diphenylpropyl)-3,7-dioxo[1,4]diazepane-5-carboxylic acid butyl-carbamoylmethylamide] | 0 | 31 | 50 | 100 | 95 | 79 | 98 | 89 | 75 | 100 | 98 | 82 | 100 | 91 | 74 | 14 | 0 | 11 | 0 | 4 | inhibition at 5 µM (Caspase activity, HeLa; 72 h): 62%
3 | NC(=O)CN(CCc1ccc(Cl)cc1)C(=O)C1CC(=O)N(CCc2ccc(Cl)cc2Cl)CC(=O)N1CCC(c1ccccc1)c1ccccc1 (centres unmarked) [I.8, 1-[2-(2,4-Dichlorophenyl)ethyl]-4-(3,3-diphenylpropyl)-3,7-dioxo[1,4]diazepane-5-carboxylic acid carbamoylmethyl[2-(4-chlorophenyl)ethyl]amide] | 0 | 16 | 24 | 100 | 98 | 99 | 100 | 98 | 99 | 100 | 100 | 99 | 97 | 100 | 100 | 5 | 3 | 5 | 15 | 23 | inhibition at 5 µM (Caspase activity, HeLa; 72 h): 6%
4 | NC(=O)CN(CCc1ccc(F)cc1)C(=O)C1CC(=O)N(CCc2ccc(Cl)cc2Cl)CC(=O)N1CCC(c1ccccc1)c1ccccc1 (centres unmarked) [I.10, 1-[2-(2,4-Dichlorophenyl)ethyl]-4-(3,3-diphenylpropyl)-3,7-dioxo[1,4]diazepane-5-carboxylic acid carbamoylmethyl[2-(4-fluorophenyl)ethyl]amide] | 0 | 22 | 64 | 96 | 99 | 89 | 100 | 98 | 99 | 76 | 100 | 91 | 100 | 100 | 100 | 1 | 6 | 0 | 5 | 2 | –
5 | NC(=O)CN(CCc1ccccc1F)C(=O)C1CC(=O)N(CCc2ccc(Cl)cc2Cl)CC(=O)N1CCC(c1ccccc1)c1ccccc1 (centres unmarked) [I.9, 1-[2-(2,4-Dichlorophenyl)ethyl]-4-(3,3-diphenylpropyl)-3,7-dioxo[1,4]diazepane-5-carboxylic acid carbamoylmethyl[2-(2-fluorophenyl)-ethyl]amide] | 0 | 34 | 61 | 100 | 98 | 88 | 93 | 69 | 59 | 100 | 96 | 82 | 97 | 76 | 66 | 0 | 0 | 3 | 4 | 63 | inhibition at 5 µM (Caspase activity, HeLa; 72 h): 41%
6 | NCCCCC(NC(=O)CN(CCc1ccc(Cl)cc1Cl)C(=O)C1CC(=O)N(CCc2ccc(Cl)cc2Cl)CC(=O)N1CCC(c1ccccc1)c1ccccc1)C(N)=O (centres unmarked) [IIa.2, 1-[2-(2,4-Dichlorophenyl)ethyl]-4-(3,3-diphenyl-propyl)-3,7-dioxo[1,4]diazepane-5-carboxylic acid [(5-amino-1-carbamoylpentylcarbamoyl)methyl]-[2-(2,4-dichlorophenyl)ethyl]amide] | – | – | – | – | – | – | – | – | – | 98 | 100 | 77 | 100 | 97 | 98 | – | – | 23 | 11 | 5 | % Cell viability (Saos-2 cell line; Saos-2, 24 h, 25 μM): 25%; % Cell viability (Saos-2 cell line; Saos-2, 24 h, 50 μM): 10%; % Cell viability (Saos-2 cell line; Saos-2, 48 h, 25 μM): 11%
7 | CC(=O)NCCNC(=O)CNC(=O)C1CC(=O)N(CCc2ccc(Cl)cc2Cl)CC(=O)N1CCC(c1ccccc1)c1ccccc1 (centres unmarked) [I.3, 1-[2-(2,4-Dichlorophenyl)ethyl]-4-(3,3-diphenylpropyl)-3,7-dioxo[1,4]diazepane-5-carboxylic acid (2-acetylaminoethyl)carbamoylmethylamide] | 1 | 29 | 22 | 100 | 95 | 95 | 100 | 100 | 98 | 97 | 93 | 100 | 100 | 100 | 100 | 9 | 21 | 12 | 16 | 1 | inhibition at 5 µM (Caspase activity, HeLa; 72 h): 29%
